From patent US20250066339A1, “HETEROCYCLE-SUBSTITUTED AROMATIC COMPOUND, METHOD FOR PREPARING SAME, HERBICIDAL COMPOSITION, AND USE THEREOF” (QINGDAO KINGAGROOT CHEMICAL COMPOUND CO., LTD., priority 2022, published 2025)

Columns and labels:
Test in all cases: Post-emergence test on weeds
Format in all cases: in vivo
Parameters in all cases: key: Level 10: completely dead; Level 9: growth control rate greater than or equal to 90% and less than 100%; Level 8: growth control rate greater than or equal to 80% and less than 90%; Level 7: growth control rate greater than or equal to 70% and less than 80%; Level 6: growth control rate greater than or equal to 60% and less than 70%; Level 5: growth control rate greater than or equal to 50% and less than 60%; Level 4: growth control rate greater than or equal to 40% and less than 50%; Level 3: growth control rate greater than or equal to 30% and less than 40%; Level 2: growth control rate greater than or equal to 20% and less than 30%; Level 1: growth control rate less than 20%; Level 0: no effect
Conditions in all cases: 3 weeks after application, fresh weight control rate
Abutilon theophrasti = test system: Abutilon theophrasti
Source text: (§1) The activity level criteria for plant damage (i.e., growth control rate) are as follows: • Level 10: completely dead; • Level 9: growth control rate greater than or equal to 90% and less than 100%; • Level 8: growth control rate greater than or equal to 80% and less than 90%; • Level 7: growth control rate greater than or equal to 70% and less than 80%; • Level 6: growth control rate greater than or equal to 60% and less than 70%; • Level 5: growth control rate greater than or equal to 50% and less than 60%; • Level 4: growth control rate greater than or equal to 40% and less than 50%; • Level 3: growth control rate greater than or equal to 30% and less than 40%; • Level 2: growth control rate greater than or equal to 20% and less than 30%; • Level 1: growth control rate less than 20%; • Level 0: no effect.
(§2) The above growth control rates are fresh weight control rates.
(§3) Monocotyledonous and dicotyledonous weed seeds (Descurainia sophia, Capsella bursa-pastoris, Abutilon theophrasti, Galium spurium, Stellaria media, Lithospermum arvense, Rorippa indica, Alopecurus aequalis, Alopecurus japonicus, Eleusine indica, Beckmannia syzigachne, Sclerochloa dura, Erigeron canadensis, Phleum paniculatum, Veronica polita, Bromus japonicus, Aegilops tauschii, Phalaris arundinacea, Amaranthus retroflexus, Chenopodium, Commelina communis, Cichorium endivia, Convolvulus arvensis, Cirsium arvense, Solanum nigrum, Acalypha australis, Digitaria sanguinalis, Echinochloa crus-galli, Setaria viridis, Setaria pumila, Leptochloa chinensis, Monochoria vaginalis, Sagittaria trifolia, Schoenoplectiella juncoides, Cyperus rotundus, Cyperus iria, Cyperus difformis, Fimbristylis, Portulaca oleracea, Xanthium sibiricum, Ipomoea nil, Eschenbachia japonica, etc.) and major crop seeds (wheat, maize, paddy rice, soybean, cotton, oilseed rape, millet, sorghum, potato, sesame, castor plant, etc.) were placed in plastic pots filled with soil and then covered with 0.5-2 cm of soil to allow them to grow in a favorable greenhouse environment. Two weeks after sowing, the test plants were treated at the stage of 2-3 leaves. The test compounds of the present invention were individually dissolved with acetone, then added with Tween® 80, with 1.5 L/ha of methyl oleate emulsifiable concentrate as a synergist, diluted into solutions of certain concentrations using certain amount of water, and sprayed to the plants using a spray tower. After drug application, the experimental results on weeds were collected after 3 weeks of cultivation in a greenhouse. The compounds were applied at 500, 250, 125, 60, 15, and 7.5 g a.i./ha in triplicate, and the results were averaged.

Amaranthus retroflexus = test system: Amaranthus retroflexus
Source text: as §1, §2, §3

Digitaria sanguinalis = test system: Digitaria sanguinalis
Source text: as §1, §2, §3

Echinochloa crus-galli = test system: Echinochloa crus-galli
Source text: as §1, §2, §3

Setaria viridis = test system: Setaria viridis
Source text: as §1, §2, §3

Veronica polita = test system: Veronica polita
Source text: as §1, §2, §3

Cc1ccc(/C=N/OC(=O)C2(C)CC(c3cc(-c4ncc(C(F)(F)F)cc4Cl)c(F)cc3Cl)=NO2)s1 (stereo not drawn) [Compound 73]
10: activity level (growth control rate) Abutilon theophrasti (Abutilon theophrasti; 60 g a.i./ha) | activity level (growth control rate) Amaranthus retroflexus (Amaranthus retroflexus; 60 g a.i./ha) | activity level (growth control rate) Digitaria sanguinalis (Digitaria sanguinalis; 60 g a.i./ha) | activity level (growth control rate) Echinochloa crus-galli (Echinochloa crus-galli; 60 g a.i./ha) | activity level (growth control rate) Setaria viridis (Setaria viridis; 60 g a.i./ha) | activity level (growth control rate) Veronica polita (Veronica polita; 60 g a.i./ha)

CC1(C(=O)ON=C2CCCC2)CC(c2cc(-c3ncc(C(F)(F)F)cc3Cl)c(F)cc2Cl)=NO1 (stereo not drawn) [Compound 74]
10: activity level (growth control rate) Abutilon theophrasti (Abutilon theophrasti; 60 g a.i./ha) | activity level (growth control rate) Amaranthus retroflexus (Amaranthus retroflexus; 60 g a.i./ha) | activity level (growth control rate) Digitaria sanguinalis (Digitaria sanguinalis; 60 g a.i./ha) | activity level (growth control rate) Echinochloa crus-galli (Echinochloa crus-galli; 60 g a.i./ha) | activity level (growth control rate) Setaria viridis (Setaria viridis; 60 g a.i./ha) | activity level (growth control rate) Veronica polita (Veronica polita; 60 g a.i./ha)

CCOC(=O)CCC1(C)CC(c2cc(-c3ncc(C(F)(F)F)cc3Cl)c(F)cc2Cl)=NO1 (stereo not drawn) [Compound 76]
10: activity level (growth control rate) Abutilon theophrasti (Abutilon theophrasti; 15 g a.i./ha) | activity level (growth control rate) Amaranthus retroflexus (Amaranthus retroflexus; 15 g a.i./ha) | activity level (growth control rate) Digitaria sanguinalis (Digitaria sanguinalis; 15 g a.i./ha) | activity level (growth control rate) Echinochloa crus-galli (Echinochloa crus-galli; 15 g a.i./ha) | activity level (growth control rate) Setaria viridis (Setaria viridis; 15 g a.i./ha) | activity level (growth control rate) Veronica polita (Veronica polita; 15 g a.i./ha)

CCSC(=O)C1(C)CC(c2cc(-c3ncc(C(F)(F)F)cc3Cl)c(F)cc2Cl)=NO1 (stereo not drawn) [Compound 78]
10: activity level (growth control rate) Abutilon theophrasti (Abutilon theophrasti; 15 g a.i./ha) | activity level (growth control rate) Amaranthus retroflexus (Amaranthus retroflexus; 15 g a.i./ha) | activity level (growth control rate) Digitaria sanguinalis (Digitaria sanguinalis; 15 g a.i./ha) | activity level (growth control rate) Echinochloa crus-galli (Echinochloa crus-galli; 15 g a.i./ha) | activity level (growth control rate) Setaria viridis (Setaria viridis; 15 g a.i./ha) | activity level (growth control rate) Veronica polita (Veronica polita; 15 g a.i./ha)

CCOC(=O)C1(C)CC(c2cc(-c3ncc(OC)cc3Cl)c(F)cc2Cl)=NO1 (stereo not drawn) [Compound 102]
10: activity level (growth control rate) Abutilon theophrasti (Abutilon theophrasti; 60 g a.i./ha) | activity level (growth control rate) Amaranthus retroflexus (Amaranthus retroflexus; 60 g a.i./ha) | activity level (growth control rate) Digitaria sanguinalis (Digitaria sanguinalis; 60 g a.i./ha) | activity level (growth control rate) Echinochloa crus-galli (Echinochloa crus-galli; 60 g a.i./ha) | activity level (growth control rate) Setaria viridis (Setaria viridis; 60 g a.i./ha) | activity level (growth control rate) Veronica polita (Veronica polita; 60 g a.i./ha)

C=C(C)c1cnc(-c2cc(C3=NOC(C)(C(=O)OCSC)C3)c(Cl)cc2F)c(Cl)c1 (stereo not drawn) [Compound 104]
10: activity level (growth control rate) Abutilon theophrasti (Abutilon theophrasti; 60 g a.i./ha) | activity level (growth control rate) Amaranthus retroflexus (Amaranthus retroflexus; 60 g a.i./ha) | activity level (growth control rate) Digitaria sanguinalis (Digitaria sanguinalis; 60 g a.i./ha) | activity level (growth control rate) Echinochloa crus-galli (Echinochloa crus-galli; 60 g a.i./ha) | activity level (growth control rate) Setaria viridis (Setaria viridis; 60 g a.i./ha) | activity level (growth control rate) Veronica polita (Veronica polita; 60 g a.i./ha)

CSCCOC(=O)C1CC(c2cc(-c3ncc(C(F)(F)F)cc3Cl)c(F)cc2Cl)=NO1 (stereo not drawn) [Compound 105]
10: activity level (growth control rate) Abutilon theophrasti (Abutilon theophrasti; 60 g a.i./ha) | activity level (growth control rate) Amaranthus retroflexus (Amaranthus retroflexus; 60 g a.i./ha) | activity level (growth control rate) Digitaria sanguinalis (Digitaria sanguinalis; 60 g a.i./ha) | activity level (growth control rate) Echinochloa crus-galli (Echinochloa crus-galli; 60 g a.i./ha) | activity level (growth control rate) Setaria viridis (Setaria viridis; 60 g a.i./ha) | activity level (growth control rate) Veronica polita (Veronica polita; 60 g a.i./ha)

C=C(C)c1cnc(-c2cc(C3=NOC(C)(C(=O)ON=C(C)C)C3)c(Cl)cc2F)c(Cl)c1 (stereo not drawn) [Compound 113]
10: activity level (growth control rate) Abutilon theophrasti (Abutilon theophrasti; 60 g a.i./ha) | activity level (growth control rate) Amaranthus retroflexus (Amaranthus retroflexus; 60 g a.i./ha) | activity level (growth control rate) Digitaria sanguinalis (Digitaria sanguinalis; 60 g a.i./ha) | activity level (growth control rate) Echinochloa crus-galli (Echinochloa crus-galli; 60 g a.i./ha) | activity level (growth control rate) Setaria viridis (Setaria viridis; 60 g a.i./ha) | activity level (growth control rate) Veronica polita (Veronica polita; 60 g a.i./ha)

CC(C)=NOC(=O)C1(C2CC2)CC(c2cc(-c3ncc(C(F)(F)F)cc3Cl)c(F)cc2Cl)=NO1 (stereo not drawn) [Compound 129]
10: activity level (growth control rate) Abutilon theophrasti (Abutilon theophrasti; 60 g a.i./ha) | activity level (growth control rate) Amaranthus retroflexus (Amaranthus retroflexus; 60 g a.i./ha) | activity level (growth control rate) Digitaria sanguinalis (Digitaria sanguinalis; 60 g a.i./ha) | activity level (growth control rate) Echinochloa crus-galli (Echinochloa crus-galli; 60 g a.i./ha) | activity level (growth control rate) Setaria viridis (Setaria viridis; 60 g a.i./ha) | activity level (growth control rate) Veronica polita (Veronica polita; 60 g a.i./ha)
